Source: patent publication US9233995B2, “Quinazoline derivatives and quinazoline complex protein kinase inhibitor for inhibiting multiplication of tumor cells and preparation method thereof” (INSTITUTE OF CHEMISTRY, CHINESE ACADEMY OF SCIENCES, priority 2010, dated 2016)
Where two headings read alike, the source gives them in different places.

Experiments:
[1] = Solubility (physicochemical properties, Table 1); details: room temperature, atmospheric pressure
[2] = system: human breast cancer cell line (sensitive) MCF-7/S + EGF; experiment: Cytotoxicity experiment under the condition of additional EGF, SRB method; format: cell-based
Protocol: Human breast cancer cell line (sensitive) MCF-7/S and human non-small cell lung cancer cell line A549 are cultured in HAM′S/F-12 medium (HyClone, USA) containing 10 wt % fetal bovine serum (FBS, Hyclone, USA), and 100 ng/ml epidermal growth factor (EGF, Sigma, USA) is added to this medium. Cells described above were purchased from Cell Resource Center, Shanghai Institute for Biological Science, CAS, they are placed in a CO2 incubator and used for the experiment 3-5 days later.
(§1) Wherein, for experiment on compound cytotoxicity assay by sulforhodamine B (SRB) method: Cells in the logarithmic growth phase are collected and inoculated at 96-well plates (6500 cells/well/100 ul, RPMI1640 containing 100 ng/ml of EGF). After incubation for 24 h, compounds at gradient concentrations (200, 100, 50, 25, 12.5, 6.25, 1 (μM/L)) are added. The same volume of RPMI1640 containing 100 ng/ml of EGF is used as control group of the experiment; the blank group is only culture medium without cell. Three parallel wells are set up for each concentration group. After incubation is continued for 48 h, the cell survival rate is measured by SRB method. 50 μl 10% trichloroacetic acid (TCA) pre-cooled (4° C.) is added to each well, it is fixed for 1 hour at 4° C., washed with water for five times, and completely dried, and then 100 μl of SRB solution (Sigma, USA) at concentration of 0.4% by weight is added, and staining is performed at 37° C. in the dark for 30 min. Wash with acetic acid at a concentration of 1% by weight for 4-5 times, dry in the air, add 200 μl of Tris solution (10 mM, pH 10.5), after sufficiently dissolved, the absorbance (absorption wavelength is 570 nm) is measured in microplate reader.
(§2) The growth inhibition rate (IR) is calculated according to the following formula: IR (%)=[1−(experiment group A value−blank group A value)/(control group A value−blank group A value)]×100%, and the IC50 value is calculated using Origin 6.0 software.

[3] = Stability (physicochemical properties, Table 1); details: for Stability (photostability): light
[4] = system: human breast cancer cell line (sensitive) MCF-7/S; experiment: Cytotoxicity experiment, SRB method, tumor cell proliferation; format: cell-based; details: 48 h, read-out: IC50 (umol/L) Breast cancer cell (sensitive) MCF-7/S
Protocol: (§3) Human breast cancer cell line (drug-resistant) MCF-7/A, human breast cancer cell line (sensitive) MCF-7/S, prostate cancer cell PC-3, keratinocyte Colo-16, human non-small cell lung cancer cell line A549 and etc. are cultured in RPMI1640 medium (Invitrogen, USA) containing 10 wt % fetal bovine serum (FBS, Hyclone, USA), and epidermal growth factor (EGF) at a concentration of 100 ng/ml is added to stimulate growth. After 2-3 days, cells in logarithmic growth phase are collected, and inoculated at 96 well plates (6500 cells/well/100 ul, RPMI1640 containing 100 ng/mL EGF) for 24 h, and then compound at gradient concentrations (200, 100, 50, 25, 12.5, 6.25, 1 μM/L) are added. The same volume of RPMI1640 containing 1 wt % of dimethyl sulfoxide (DMSO) is used as control group of the experiment; the blank group is only culture medium without cell. Three parallel wells are set up for each concentration group. After incubation is continued for 48 h, the cell survival rate is measured by SRB method. Results are shown in Table 2 and Table 3, respectively.
as §1, §2

[5] = system: Human breast cancer cell line (drug-resistant) MCF-7/A; experiment: as above; format: cell-based; details: 48 h, read-out: IC50 (umol/L) Breast cancer cell (drug-resistant) MCF-7/A
Protocol: as §3, §1, §2

[6] = system: human non-small cell lung cancer cell line A549; experiment: as above; format: cell-based; details: A549, 48 h, read-out: IC50 (μmol/L) Non-small cell lung cancer cell A549
Protocol: as §3, §1, §2

keratinocyte Colo-16 = experiment: as above; format: cell-based; details: read-out: IC50 (μmol/L) Keratinocyte Colo-16
Protocol: as §3, §1, §2

[7] = system: prostate cancer cell PC-3; experiment: as above; format: cell-based; details: read-out: IC50 (μmol/L) Prostate cancer cell PC-3
Protocol: as §3, §1, §2

[8] = molecular target: T1, EGFR (Epidermal Growth Factor Receptor) (Homo sapiens, UniProt P00533); experiment: Enzyme-linked immunosorbent assay (ELISA), kinase inhibitory activity (phosphorylation of PTP1B(Tyr66) biotinylated peptide substrate); format: biochemical; details: average of two independent parallel experiments
T1 construct: purchased CST
T1 sequence (P00533 25-1210): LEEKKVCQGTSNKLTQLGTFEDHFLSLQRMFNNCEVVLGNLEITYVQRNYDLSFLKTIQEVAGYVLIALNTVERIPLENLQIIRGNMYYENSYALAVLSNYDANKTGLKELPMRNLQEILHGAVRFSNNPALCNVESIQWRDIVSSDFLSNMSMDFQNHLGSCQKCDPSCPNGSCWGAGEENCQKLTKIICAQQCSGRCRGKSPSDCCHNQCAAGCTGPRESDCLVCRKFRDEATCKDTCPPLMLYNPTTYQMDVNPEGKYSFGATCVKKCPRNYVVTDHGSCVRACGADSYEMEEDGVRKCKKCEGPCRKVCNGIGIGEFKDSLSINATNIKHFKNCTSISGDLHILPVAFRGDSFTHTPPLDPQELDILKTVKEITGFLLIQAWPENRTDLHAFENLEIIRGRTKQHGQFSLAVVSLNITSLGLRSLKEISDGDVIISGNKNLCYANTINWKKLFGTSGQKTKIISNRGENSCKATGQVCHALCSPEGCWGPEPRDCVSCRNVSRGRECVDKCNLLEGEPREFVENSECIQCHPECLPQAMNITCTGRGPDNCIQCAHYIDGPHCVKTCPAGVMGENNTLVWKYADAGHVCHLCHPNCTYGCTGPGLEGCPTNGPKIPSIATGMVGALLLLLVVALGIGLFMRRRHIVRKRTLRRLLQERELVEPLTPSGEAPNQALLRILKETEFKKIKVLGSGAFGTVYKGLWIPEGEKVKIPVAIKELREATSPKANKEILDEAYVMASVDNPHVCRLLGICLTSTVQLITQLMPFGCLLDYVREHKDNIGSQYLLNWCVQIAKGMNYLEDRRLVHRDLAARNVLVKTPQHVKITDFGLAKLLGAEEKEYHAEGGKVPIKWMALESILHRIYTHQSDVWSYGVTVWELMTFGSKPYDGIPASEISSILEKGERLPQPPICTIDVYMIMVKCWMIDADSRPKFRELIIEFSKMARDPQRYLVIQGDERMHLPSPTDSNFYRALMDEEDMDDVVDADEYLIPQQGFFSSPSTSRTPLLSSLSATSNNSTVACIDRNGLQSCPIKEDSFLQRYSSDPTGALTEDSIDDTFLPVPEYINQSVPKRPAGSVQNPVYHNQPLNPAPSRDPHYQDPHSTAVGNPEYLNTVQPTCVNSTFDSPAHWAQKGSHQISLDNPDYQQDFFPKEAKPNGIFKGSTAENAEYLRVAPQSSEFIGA
From the text: Protein kinase assay kit: PTP1B(Tyr66) Biotinylated Peptide from CST company is used as a substrate of kinase EGFR (Epidermal Growth Factor Receptor).

[9] = Homo sapiens, MCF7S, MCF-7/S with additional EGF 100 ng/ml, 48 h, SRB, read-out: IC50 (umol/L) Breast cancer cell (sensitive) MCF-7/S + EGF
[10] = MCF-7/S with additional EGF 100 ng/ml, 48 h, SRB, read-out: IC50 (umol/L) Breast cancer cell (sensitive) MCF-7/S + EGF

| SMILES | Solubility in DMSO [1] | Solubility in methanol and ethanol [1] | Solubility in water [1] | Stability (in air) [3] | Stability (photostability) [3] | IC50 [8] [µM] | IC50 [2, 10] [µmol/L] | IC50 [4] [µmol/L] | IC50 [5] [µmol/L] | IC50 (keratinocyte Colo-16; Colo-16, 48 h, SRB) [µmol/L] | IC50 ([7]; PC-3, 48 h, SRB) [µmol/L] | other results |
| --- | --- | --- | --- | --- | --- | --- | --- | --- | --- | --- | --- | --- |
| COc1cc2ncnc(Nc3ccc(F)c(Cl)c3)c2cc1OCCn1ccnc1 [JLY1002] | Highly soluble in DMSO | soluble in water, soluble in methanol | slightly | Stable in air, | photostable |  |  |  |  |  |  | IC50 [2, 9]: > 100 µmol/L; IC50 ([4]; Homo sapiens, MCF7S): > 100 µmol/L; IC50 ([5]; Homo sapiens, MCF7a): > 100 µmol/L; IC50 ([6]; Homo sapiens): 48.2 ± 0.51 µmol/L; IC50 (keratinocyte Colo-16; Keratinocyte, 48 h): > 100 µmol/L; IC50 ([7]; 48 h): > 100 µmol/L |
| COc1cc2ncnc(Nc3ccc(F)c(Cl)c3)c2cc1OCCC[N]1CC[NH][Ru+]1([Cl])[c]1cc(C(C)C)ccc1C.F[P-](F)(F)(F)(F)F (stereo not shown) [ZW2004] | Highly soluble in DMSO | soluble in water, soluble in methanol | slightly | Stable in air, | photostable | 0.106 | 33.9 ± 1.39 | 86.8 ± 6.66 | > 100 | 58.2 ± 1.49 | 79.9 ± 7.44 | IC50 ([2]; MCF-7/S+EGF, read-out: IC50 under the test condition of MCF-7/S+EGF inhibiting the proliferation of tumor cells): 33.9 µmol/L; IC50 ([2]; MCF-7/S+EGF, read-out: IC50 under the test conditions of MCF-7/S+EGF inhibiting tumor cell proliferation): 33.9 µmol/L |
| COc1cc2ncnc(Nc3ccc(F)c(Cl)c3)c2cc1OCCC[NH+]1CC[NH2+][Pt-2]1([Cl])[Cl] (stereo not shown) [ZY-2] | Highly soluble in DMSO | soluble in water, soluble in methanol | slightly | Stable in air, | photostable | 0.017 |  |  |  |  |  |  |
| COc1cc2ncnc(Nc3ccc(F)c(Cl)c3)c2cc1OCC[N]1CC[NH][Ru]1([Cl])([Cl])([Cl])[SH](C)(C)=O [JLY2007] | Highly soluble in DMSO | soluble in water, soluble in methanol | slightly | Stable in air, | photostable | 0.0075 |  |  |  |  |  |  |
| COc1cc2ncnc(Nc3ccc(F)c(Cl)c3)c2cc1OCC[N]1CC[NH][Ru+]1([Cl])[c]1ccccc1.F[P-](F)(F)(F)(F)F (stereo not shown) [ZW2002] |  |  |  | Stable in air, | photostable | 0.0938 | > 100 | > 100 | > 100 | 42.1 ± 2.55 | > 100 | IC50 [6]: > 100 µmol/L |
| Cl.[Cl-].[Cl-].[Cl-].[Ru+3].c1c[nH]cn1.c1c[nH]cn1 [NAMI-A, reference compound] |  |  |  |  |  |  | > 100 | > 100 | > 100 | > 100 | > 100 |  |
| COc1cc2ncnc(Nc3ccc(F)c(Cl)c3)c2cc1OC [LQ1001, reference compound] | Highly soluble in DMSO | soluble in water, soluble in methanol | slightly | Stable in air, | photostable |  |  |  |  |  | > 100 | IC50 [2, 9]: 53.3 ± 3.12 µmol/L; IC50 ([4]; Homo sapiens, MCF7S): > 100 µmol/L; IC50 ([5]; Homo sapiens, MCF7a): > 100 µmol/L; IC50 ([6]; Homo sapiens): > 100 µmol/L; IC50 (keratinocyte Colo-16; Keratinocyte, Colo-16, 48 h, SRB): 88.2 ± 3.98 µmol/L |
